Assay results published in patent US9364479B2, “Use of a receptor-type kinase modulator for treating polycystic kidney disease” (SYMPHONY EVOLUTION, INC., priority 2010, dated 2016).
Where two headings read alike, the source gives them in different places.

What was measured:
PCK rat = type: in vivo; conditions: for CT-CI / Creatinine / Kidney/Body weight: PN Day 90
Description: The phenotype of the PCK rat is different from that of humans in that it has a slower disease progression and slower decline in renal function. The PCK rats came from a mutated colony of Sprague-Dawley rats from Fujita Health University and were housed at the Medical College of Wisconsin.
Two hours after last injection on PN90 the rats were sacrificed and the kidneys and liver were removed and weighed. Post-mortem measurements included KW/BW ratio and cystic index (CI) using renal sections from the cortex, medulla, and papilla. CT-CI was then determined from cystic index which was based on renal cyst size at 15 day intervals from PN0 to PN135. Renal function was assessed with BUN and creatinine levels from cardiac puncture.

Src = biological target: T1, Src (Homo sapiens, UniProt P12931); assay: Chemiluminescent kinase assay; type: biochemical; conditions: ATP at Km
T1 construct: His (N); purchased Upstate Biotech

[1] = system: Glutamate, NMDA Agonist Site; assay: NovaScreen assay; type: binding
Histamine, H2 = biological target: T2, Histamine, H2 (Homo sapiens, UniProt P25021); assay: NovaScreen assay; type: binding; conditions: read-out: Inhibition, 10 μM XL-647
T2 construct: NovaScreen

Testosterone (cytosolic) = biological target: T3, Testosterone (cytosolic) (Homo sapiens, UniProt P10275); assay: NovaScreen assay; type: binding; conditions: read-out: Inhibition, 10 μM XL-647
T3 construct: NovaScreen

[2] = system: Calcium Channel, Type L (Dihydropyridine Site); assay: NovaScreen assay; type: binding
[3] = biological target: T4, Neurokinin, NK2 (NKA) (Human Recombinant) (Homo sapiens, UniProt P21452); assay: NovaScreen assay; type: binding; conditions: read-out: Inhibition, 10 μM XL-647
T4 construct: NovaScreen

Vasopressin 1 = biological target: T5, Vasopressin 1 (Homo sapiens, UniProt P37288); assay: NovaScreen assay; type: binding; conditions: read-out: Inhibition, 10 μM XL-647
T5 construct: NovaScreen

[4] = system: panel of pharmacological targets, including receptors, transporters, and enzymes; assay: NovaScreen panel, overall statements; type: binding; conditions: single in vitro concentration of 10 μM
[5] = biological target: T6, panel of pharmacological targets, including receptors, transporters, and enzymes; assay: NovaScreen panel, overall statements; type: binding; conditions: muscarinic receptors, α2-adrenergic receptor and dopamine transporter
T6 construct: IC50 values; other: muscarinic receptors, α2-adrenergic receptor and dopamine transporter

PKC-ε = biological target: T7, PKC-ε (Homo sapiens, UniProt Q02156); assay: Radiometric kinase assay; type: biochemical
T7 construct: purchased PanVera
Protocol: Further screening was performed using the biochemical assay methods of Example 2. Additional description of the components and concentrations are summarized in Table 8, Table 9, and Table 10, below.

[6] = biological target: T8, EGFR phosphorylation (H1975 cells) (Homo sapiens, UniProt P00533, L858R/T790M); assay: Immunoblot analysis of H1975 cell lysates; type: cell-based
T8 construct: host or cells: H1975 (cultured cells; s.c. xenografts in mice)
Protocol: For the H1975 immunoblot studies, 3×10^5 cells were plated in each well (12-well plate) and incubated for 16 h in complete RPMI 1640, rinsed with fetal bovine serum-free RPMI 1640, and incubated with serial dilutions of test compounds in fetal bovine serum-free medium for 2 h followed by stimulation with 100 ng/mL human recombinant EGF for 10 min. Whole-cell protein lysates were prepared as described above and centrifuged for 10 min at 13,000×g at 4° C. to remove any insoluble material. Total protein was determined using bicinchoninic acid reagent and an equal amount of protein was combined with LDS loading buffer (Invitrogen) according to the manufacturer's instructions. Proteins were separated by gel electrophoresis on 4% to 15% polyacrylamide gels, transferred to nitrocellulose membranes, and detected by immunoblotting. Antibody:antigen complexes were detected using chemiluminescence. The following antibodies from Cell Signaling Technology were used at a 1:1,000 dilution: anti-EGFR, anti-pEGFR^Tyr1068, anti-AKT, anti-pAKT^Ser473, anti-ERK, and anti-pERK^Thr202/Tyr204. The anti-β-actin primary antibody (Accurate Chemical and Scientific) was used at 1:10,000 and the horseradish peroxidase-coupled secondary antibodies were purchased from Jackson ImmunoResearch and used at 1:5,000.

[7] = system: HT-29 human tumor xenograft; assay: HT-29 xenograft, tumor growth; type: in vivo; conditions: Mus musculus
Protocol: (§1) The response of tumors to treatment was determined by comparing the mean tumor weight of the treatment group with the appropriate control group. Percentage inhibition of tumor growth was determined with the following formula: Percentage inhibition=100×[1−(Xf−Xo)/(Yf−Yo)], where Xf and Yf are the mean tumor weights of the treatment and control groups, respectively, on day f, and Xo and Yo are the mean tumor weights of treatment and control groups respectively, on day zero (staged tumor weights after grouping)

[8] = system: Calu-6 human tumor xenograft; assay: Calu-6 xenograft, tumor growth; type: in vivo; conditions: Mus musculus, qd × 28
Protocol: as §1

total HER2/ErbB2 = biological target: T9, total HER2/ErbB2 (Homo sapiens, UniProt P04626); assay: In vivo receptor level, BT474 xenografts; design: species or system mouse
T9 construct: endogenous in cells; host or cells: BT474 tumour xenografts in mice (per the earlier reading)

CYP3A4 [9] = biological target: T10, CYP3A4 (Homo sapiens, UniProt P08684); conditions: microsomes
CYP3A4 [10] = biological target: T10, CYP3A4; conditions: microsomes; remark: listed apart in the source
EGFR L861Q (pCMV/Lx-1) = EGFR L861Q (pCMV/Lx-1) (Homo sapiens, UniProt P00533, L861Q); assay: EGFR phosphorylation ELISA in transfected Lx-1 cells
Description: Lx-1 cells were used because they lack background EGFR activity. A clone corresponding to the longest EGFR isoform (Genbank accession no. NM_005228.3/NP_005219.2 #21-176, Upstate Biotechnology) was used as a template to produce two mutant EGFR genes (coding for L858R and L861Q) by site-directed mutagenesis. The WT and the two sequence-verified mutants were transferred to a COOH-terminal Flag-tagged retroviral cytomegalovirus promoter-driven mammalian expression vector. The two Tet-On expression vectors, EGFR WT (Tet-On) and EGFRvIII (Tet-On), which were COOH-terminally Flag tagged, were generously provided by Dr. Abhijit Guha (University of Toronto, Toronto, Ontario, Canada).
Transient transfections of Lx-1 cells were done using Lipofectamine 2000 (Invitrogen) according to the manufacturer's protocol. For transfections of the WT, L858R, and L861Q constructs, 1 μg plasmid DNA was used for each transfection (each well of a 12-well plate). […]
For the EGFR phosphorylation ELISA, Reacti-Bind streptavidin-coated plates (Pierce) were coated with 2 μg/mL biotin-conjugated anti-Flag antibody (Sigma). […] Horseradish peroxidase activity was determined by reading the plates in a Victor2 plate reader following addition of the ELISA Femto substrate.

KDR = KDR (Homo sapiens, UniProt P35968); assay: Luciferase-coupled chemiluminescence kinase assay; type: biochemical; design: residues D807-V1356 of human KDR, Proqinase; purchased Proqinase; conditions: ATP at Km
Protocol: (§2) Dose-response experiments were done using 10 different inhibitor concentrations in 384-well microtiter plates. The ATP concentration used for each assay was equivalent to the Km for each kinase.
A Luciferase-coupled chemiluminescence assay was used to measure EGFR and KDR (VEGFR2) activity. Kinase activity was measured as the percentage of ATP consumed following the kinase reaction using luciferase-luciferin-coupled chemiluminescence. Reactions were conducted in 384-well white, medium-binding microtiter plates (Greiner). […] The reaction mixture was incubated at room temperature for 4 h. Following the kinase reaction, a 20 μL aliquot of Kinase Glo (Promega) was added and luminescence signal was measured using a Victor2 plate reader (Perkin-Elmer). Total ATP consumption was limited to 50%.

ErbB2 = ErbB2 (Homo sapiens, UniProt P04626); assay: AlphaScreen tyrosine kinase assay; type: biochemical; design: residues Q679-V1255 of human ErbB2, Proqinase; purchased Proqinase; conditions: ATP at Km
Description: as §2
An AlphaScreen tyrosine kinase assay was used to measure ErbB2 and Flt-4 activity. Donor beads coated with streptavidin and acceptor beads coated with PY100 anti-phosphotyrosine antibody (Perkin-Elmer) were used. Biotinylated poly(Glu,Tyr) 4:1 was used as the substrate. Substrate phosphorylation was measured by luminescence following donor-acceptor bead addition followed by complex formation. Test compound, 3 μmol/L ATP, 3 nmol/L biotinylated poly(Glu,Tyr) 4:1, and 1 nmol/L ErbB2 (residues Q679-V1255 of human ErbB2, Proqinase) or Flt-4 (residues D725-R1298 of human Flt-4, Proqinase) were combined in a volume of 20 μL Assay Buffer (20 mM TrisHCl, pH 7.5, 10 mM MgCl2, 3 mM MnCl2, 1 mM DTT, 0.01% Triton) in a 384-well white, medium-binding microtiter plate (Greiner). Reaction mixtures were incubated for 1 h at room temperature. Reactions were quenched by addition of 10 μL of 15 to 30 μg/mL AlphaScreen bead suspension containing 75 mmol/L HEPES (pH 7.4), 300 mmol/L NaCl, 120 mmol/L EDTA, 0.3% bovine serum albumin, and 0.03% Tween 20. After 2 to 16 h of incubation at room temperature, plates were read using an AlphaQuest reader (Perkin-Elmer).

[11] = 7.5 mg/kg/day, PN Day 90, 7.5 mg/kg/day
[12] = 7.5 mg/kg/day, PN Day 90, listed as PRIM-001, 7.5 mg/kg/day
[13] = 15 mg/kg/day, PN Day 90, 15 mg/kg/day
[14] = 15 mg/kg/day, PN Day 90, listed as PRIM-001, 15 mg/kg/day

T10 sequence (P08684 whole entry): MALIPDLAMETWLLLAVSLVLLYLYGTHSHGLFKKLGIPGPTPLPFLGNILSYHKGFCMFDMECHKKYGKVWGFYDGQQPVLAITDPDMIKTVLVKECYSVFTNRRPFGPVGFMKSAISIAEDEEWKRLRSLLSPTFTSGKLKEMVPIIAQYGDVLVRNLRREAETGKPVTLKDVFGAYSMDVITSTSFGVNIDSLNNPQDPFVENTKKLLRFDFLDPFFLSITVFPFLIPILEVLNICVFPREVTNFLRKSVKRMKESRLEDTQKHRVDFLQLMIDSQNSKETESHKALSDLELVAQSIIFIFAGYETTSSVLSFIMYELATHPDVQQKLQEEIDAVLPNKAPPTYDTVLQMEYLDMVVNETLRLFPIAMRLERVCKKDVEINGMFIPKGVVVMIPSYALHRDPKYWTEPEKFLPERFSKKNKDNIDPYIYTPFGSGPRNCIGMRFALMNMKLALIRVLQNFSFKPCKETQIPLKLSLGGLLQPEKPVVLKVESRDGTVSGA
T7 sequence (Q02156 whole entry): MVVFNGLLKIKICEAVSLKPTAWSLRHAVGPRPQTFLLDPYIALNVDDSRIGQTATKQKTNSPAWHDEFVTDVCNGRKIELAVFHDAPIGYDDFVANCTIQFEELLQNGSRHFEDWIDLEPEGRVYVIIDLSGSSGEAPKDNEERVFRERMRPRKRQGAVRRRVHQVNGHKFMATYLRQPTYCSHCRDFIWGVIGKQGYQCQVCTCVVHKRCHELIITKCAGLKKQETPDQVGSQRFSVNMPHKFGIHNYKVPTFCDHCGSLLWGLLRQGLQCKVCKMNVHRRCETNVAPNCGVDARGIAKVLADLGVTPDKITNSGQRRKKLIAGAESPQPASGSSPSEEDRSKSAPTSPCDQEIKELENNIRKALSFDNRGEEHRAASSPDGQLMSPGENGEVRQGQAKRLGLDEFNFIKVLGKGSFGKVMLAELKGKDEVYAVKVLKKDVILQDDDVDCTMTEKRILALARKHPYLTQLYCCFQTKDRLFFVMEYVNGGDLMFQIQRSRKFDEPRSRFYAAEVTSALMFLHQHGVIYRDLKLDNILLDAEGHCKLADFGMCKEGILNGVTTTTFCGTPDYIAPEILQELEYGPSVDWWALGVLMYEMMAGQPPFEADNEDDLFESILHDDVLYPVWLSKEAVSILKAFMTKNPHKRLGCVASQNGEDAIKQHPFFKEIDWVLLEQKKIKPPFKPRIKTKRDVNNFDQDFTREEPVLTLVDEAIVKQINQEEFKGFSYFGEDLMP
T3 sequence (P10275 whole entry): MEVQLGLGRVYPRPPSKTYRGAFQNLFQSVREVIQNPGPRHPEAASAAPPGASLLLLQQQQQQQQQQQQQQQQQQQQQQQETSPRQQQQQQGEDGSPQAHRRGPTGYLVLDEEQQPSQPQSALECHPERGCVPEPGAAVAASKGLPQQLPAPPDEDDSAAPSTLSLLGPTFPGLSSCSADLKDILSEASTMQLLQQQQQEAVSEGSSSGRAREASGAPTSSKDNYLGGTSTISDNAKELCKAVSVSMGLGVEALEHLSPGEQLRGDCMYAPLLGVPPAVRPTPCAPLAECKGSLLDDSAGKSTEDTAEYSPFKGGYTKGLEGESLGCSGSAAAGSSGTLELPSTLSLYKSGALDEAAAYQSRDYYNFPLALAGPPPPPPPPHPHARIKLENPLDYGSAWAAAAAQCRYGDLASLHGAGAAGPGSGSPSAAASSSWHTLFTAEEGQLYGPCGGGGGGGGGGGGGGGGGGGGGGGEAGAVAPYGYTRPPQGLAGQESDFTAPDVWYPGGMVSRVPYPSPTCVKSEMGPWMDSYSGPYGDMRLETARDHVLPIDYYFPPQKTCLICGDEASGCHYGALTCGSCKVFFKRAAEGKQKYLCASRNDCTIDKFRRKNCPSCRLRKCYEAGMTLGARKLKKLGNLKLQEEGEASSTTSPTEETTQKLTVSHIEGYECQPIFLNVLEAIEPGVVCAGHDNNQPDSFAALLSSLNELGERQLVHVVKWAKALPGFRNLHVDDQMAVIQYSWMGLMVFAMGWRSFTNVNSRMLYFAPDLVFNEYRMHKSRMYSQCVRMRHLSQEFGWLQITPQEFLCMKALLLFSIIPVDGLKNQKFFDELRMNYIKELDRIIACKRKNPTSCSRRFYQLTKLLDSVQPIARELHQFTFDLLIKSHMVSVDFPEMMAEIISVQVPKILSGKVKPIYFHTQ
ErbB2, sequence (P04626 679-1255): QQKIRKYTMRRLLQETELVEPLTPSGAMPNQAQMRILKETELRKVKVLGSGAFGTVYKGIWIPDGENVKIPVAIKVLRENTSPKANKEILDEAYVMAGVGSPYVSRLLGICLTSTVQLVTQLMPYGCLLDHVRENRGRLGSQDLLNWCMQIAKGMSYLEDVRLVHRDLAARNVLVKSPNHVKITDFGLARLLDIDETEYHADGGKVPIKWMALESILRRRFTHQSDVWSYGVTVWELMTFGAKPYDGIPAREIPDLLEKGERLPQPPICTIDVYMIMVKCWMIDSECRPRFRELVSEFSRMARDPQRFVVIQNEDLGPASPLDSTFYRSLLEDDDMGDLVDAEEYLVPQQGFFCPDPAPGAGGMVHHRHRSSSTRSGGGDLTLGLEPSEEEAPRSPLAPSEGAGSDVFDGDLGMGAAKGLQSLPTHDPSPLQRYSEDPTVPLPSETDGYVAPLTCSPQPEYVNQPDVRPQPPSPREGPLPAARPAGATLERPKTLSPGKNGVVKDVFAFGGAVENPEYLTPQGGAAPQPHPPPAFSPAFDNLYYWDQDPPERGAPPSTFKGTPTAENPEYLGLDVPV
T9 sequence (P04626 23-1255): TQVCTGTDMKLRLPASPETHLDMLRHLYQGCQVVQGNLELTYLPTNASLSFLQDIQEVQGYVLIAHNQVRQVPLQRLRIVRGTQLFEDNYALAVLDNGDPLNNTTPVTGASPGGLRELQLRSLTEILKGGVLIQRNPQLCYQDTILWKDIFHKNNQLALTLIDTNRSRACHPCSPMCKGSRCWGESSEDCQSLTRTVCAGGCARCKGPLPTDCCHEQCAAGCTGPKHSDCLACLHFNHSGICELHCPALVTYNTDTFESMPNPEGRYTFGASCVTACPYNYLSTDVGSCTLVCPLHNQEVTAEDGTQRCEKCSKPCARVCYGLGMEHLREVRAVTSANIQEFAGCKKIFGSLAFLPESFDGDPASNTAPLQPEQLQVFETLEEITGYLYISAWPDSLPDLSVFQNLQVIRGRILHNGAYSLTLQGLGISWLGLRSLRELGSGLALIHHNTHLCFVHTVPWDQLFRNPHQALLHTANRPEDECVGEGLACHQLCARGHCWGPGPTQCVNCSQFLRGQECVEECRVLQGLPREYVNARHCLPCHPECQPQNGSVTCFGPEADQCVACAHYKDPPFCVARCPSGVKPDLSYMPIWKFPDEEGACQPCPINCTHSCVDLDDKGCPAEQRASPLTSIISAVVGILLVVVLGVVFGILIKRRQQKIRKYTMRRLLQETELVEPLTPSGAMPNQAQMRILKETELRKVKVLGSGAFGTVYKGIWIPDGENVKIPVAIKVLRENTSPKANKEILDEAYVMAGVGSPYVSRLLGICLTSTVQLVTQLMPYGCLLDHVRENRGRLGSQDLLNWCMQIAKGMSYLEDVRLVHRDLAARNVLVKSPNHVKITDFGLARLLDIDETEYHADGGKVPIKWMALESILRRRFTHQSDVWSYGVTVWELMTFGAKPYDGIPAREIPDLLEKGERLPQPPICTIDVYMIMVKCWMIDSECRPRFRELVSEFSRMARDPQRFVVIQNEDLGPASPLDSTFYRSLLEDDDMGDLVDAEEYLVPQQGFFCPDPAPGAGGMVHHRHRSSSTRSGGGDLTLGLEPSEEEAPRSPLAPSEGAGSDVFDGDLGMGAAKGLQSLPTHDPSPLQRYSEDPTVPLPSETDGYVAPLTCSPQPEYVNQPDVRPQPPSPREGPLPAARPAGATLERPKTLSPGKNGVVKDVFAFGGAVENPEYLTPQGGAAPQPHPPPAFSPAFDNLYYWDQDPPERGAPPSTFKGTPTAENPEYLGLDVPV
T5 sequence (P37288 whole entry): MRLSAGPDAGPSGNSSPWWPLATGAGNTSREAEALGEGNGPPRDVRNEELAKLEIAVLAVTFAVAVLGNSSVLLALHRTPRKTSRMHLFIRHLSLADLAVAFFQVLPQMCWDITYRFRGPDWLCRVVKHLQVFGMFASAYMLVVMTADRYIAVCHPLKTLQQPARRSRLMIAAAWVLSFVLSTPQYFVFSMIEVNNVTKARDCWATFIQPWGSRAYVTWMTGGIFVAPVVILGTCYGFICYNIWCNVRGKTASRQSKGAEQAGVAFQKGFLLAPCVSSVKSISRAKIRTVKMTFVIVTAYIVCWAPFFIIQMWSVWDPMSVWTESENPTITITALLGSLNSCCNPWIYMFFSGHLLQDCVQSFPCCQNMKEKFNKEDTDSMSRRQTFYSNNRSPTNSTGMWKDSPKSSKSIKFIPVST
KDR, sequence (P35968 807-1356): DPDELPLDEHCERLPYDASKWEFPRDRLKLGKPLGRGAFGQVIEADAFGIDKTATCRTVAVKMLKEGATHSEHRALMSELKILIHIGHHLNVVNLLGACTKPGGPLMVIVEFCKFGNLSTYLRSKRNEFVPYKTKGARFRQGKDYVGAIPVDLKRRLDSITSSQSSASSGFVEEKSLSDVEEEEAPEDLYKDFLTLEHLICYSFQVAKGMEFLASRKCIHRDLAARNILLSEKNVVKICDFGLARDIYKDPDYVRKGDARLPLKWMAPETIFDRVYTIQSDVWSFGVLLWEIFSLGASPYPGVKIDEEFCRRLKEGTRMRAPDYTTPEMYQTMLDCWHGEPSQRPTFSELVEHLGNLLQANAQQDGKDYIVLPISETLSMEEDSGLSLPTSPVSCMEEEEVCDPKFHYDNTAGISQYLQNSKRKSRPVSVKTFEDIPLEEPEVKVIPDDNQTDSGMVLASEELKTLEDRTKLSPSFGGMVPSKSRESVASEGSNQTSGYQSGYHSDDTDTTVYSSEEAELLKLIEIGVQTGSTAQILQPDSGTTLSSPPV

SMILES: COc1cc2c(Nc3ccc(Cl)c(Cl)c3F)ncnc2cc1OC[C@@H]1C[C@@H]2CN(C)C[C@@H]2C1 [XL-647, N-(3,4-dichloro-2-fluorophenyl)-7-({[(3aR,5r,6aS)-2-methyloctahydrocyclopenta[c]pyrrol-5-yl]methyl}oxy)-6-(methyloxy)quinazolin-4-amine]
- decrease of BUN level (PCK rat; 7.5 mg/kg q.d.): 19.2%
- decrease of kidney weight (PCK rat; 7.5 mg/kg q.d.): 13.4%
- reduction of CT-CI (PCK rat; 7.5 mg/kg q.d.): 19.6%
- CT-CI (PCK rat; 7.5 mg/kg/day): 5.63
- Creatinine (PCK rat; 7.5 mg/kg/day): 0.48 ± 0.09 mg/dL
- Kidney/Body weight (PCK rat; 7.5 mg/kg/day): 1.5%
- BUN (PCK rat; [11]): 27.50 ± 3.74 mg/dL
- Kidney Weight (PCK rat; [11]): 5.77 ± 0.47 g
- BUN (PCK rat; [12]): 27.50 ± 3.74 mg/dL
- Kidney Weight (PCK rat; [12]): 5.77 g
- decrease of BUN level (PCK rat; 15 mg/kg q.d.): 28.8%
- decrease of kidney weight (PCK rat; 15 mg/kg q.d.): 26.0%
- reduction of CT-CI (PCK rat; 15 mg/kg q.d.): 35.7%
- CT-CI (PCK rat; 15 mg/kg/day): 4.50
- Creatinine (PCK rat; 15 mg/kg/day): 0.46 ± 0.07 mg/dL
- Kidney/Body weight (PCK rat; 15 mg/kg/day): 1.31%
- BUN (PCK rat; [13]): 24.25 ± 4.3 mg/dL
- Kidney Weight (PCK rat; [13]): 4.93 ± 0.42 g
- BUN (PCK rat; [14]): 24.25 ± 4.30 mg/dL
- Kidney Weight (PCK rat; [14]): 4.93 g
- IC50 (Src): 0.0103 ± 0.002 µM
- Inhibition, 10 μM XL-647 [1]: −1.66%
- inhibition at 10 µM (Histamine, H2): 45.7%
- inhibition at 10 µM (Testosterone (cytosolic)): 18.1%
- Inhibition, 10 μM XL-647 [2]: 46.77%
- inhibition at 10 µM [3]: 34.2%
- inhibition at 10 µM (Vasopressin 1): 32.8%
- interaction with the panel, in words [4]: interact with very few of the pharmacological targets
- IC50 [5]: 1 to 2.7 µM
- IC50 (PKC-ε): > 10 µM
- phosphorylation of EGFR, immunoblot [6]: inhibits phosphorylation of EGFR
- ED50 ([7]; HT-29, qd × 14): 20.2 mg/kg
- ED50 ([7]; HT-29, qd × 28): 16 mg/kg
- ED50 [8]: 16.4 mg/kg
- Single Dose Duration of Action (100 mg/kg, >50% inhibition) (total HER2/ErbB2): >96 h
- CYP3A4 substrate, in words (CYP3A4 [9]): substrate for CYP3A4-mediated metabolism
- CYP3A4 inhibition, in words (CYP3A4 [10]): but not CYP3A4
- IC50 (EGFR L861Q (pCMV/Lx-1)): 0.01 µM
- IC50 (KDR): 0.0015 ± 0.0002 µM
- IC50 (ErbB2): 0.016 ± 0.003 µM
